# Reference: US11414416B1, “Compounds and uses thereof” (Foghorn Therapeutics Inc., priority 2019, dated 2022)
# Molecular target: Nanoluciferase-BRD9 fusion protein (Homo sapiens (Human), UniProt Q9H8M2)
# Assay: SYO1 BRD9 NanoLuc degradation assay
# Format: cell-based
# Details: Table 5B; SYO-1 cells expressing 3×FLAG-NLuc-BRD9, 6 hours; read-out: SYO1 BRD9-NanoLuc degradation IC50
# Procedure, shortened: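 Degradation was read as loss of nanoluciferase signal (Nano-Glo) after 6 h compound exposure in a stable SYO-1 line carrying 3×FLAG-NLuc-BRD9 (8000 cells/well). Normalised between DMSO (high) and a 1 μM known BRD9 degrader (low).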
# Nanoluciferase-BRD9 fusion protein, sequence (Q9H8M2 whole entry, the tested form may be a part): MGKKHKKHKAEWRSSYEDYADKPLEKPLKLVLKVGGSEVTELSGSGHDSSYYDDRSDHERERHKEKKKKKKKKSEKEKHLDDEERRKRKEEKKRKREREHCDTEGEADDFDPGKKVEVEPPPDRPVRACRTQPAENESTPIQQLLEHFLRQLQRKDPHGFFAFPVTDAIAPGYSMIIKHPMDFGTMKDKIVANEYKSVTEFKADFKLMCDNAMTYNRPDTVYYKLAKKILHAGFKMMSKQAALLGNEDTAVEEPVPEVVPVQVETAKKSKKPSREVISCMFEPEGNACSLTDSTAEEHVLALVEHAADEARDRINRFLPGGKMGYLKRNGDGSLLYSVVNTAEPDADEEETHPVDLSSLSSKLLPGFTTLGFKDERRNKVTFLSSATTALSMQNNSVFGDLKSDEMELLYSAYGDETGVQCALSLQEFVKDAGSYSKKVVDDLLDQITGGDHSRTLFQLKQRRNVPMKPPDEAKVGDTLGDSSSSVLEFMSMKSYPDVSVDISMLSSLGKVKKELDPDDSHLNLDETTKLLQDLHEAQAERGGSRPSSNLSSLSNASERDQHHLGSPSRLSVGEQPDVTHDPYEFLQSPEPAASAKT
row,DC50 [nM],Compound
1,< 10,COc1cc(-c2cn(C)c(=O)c3ccccc23)cc(OC)c1CN1CC(CN2CCC3(CC2)CN(c2ccc4c(c2)C(=O)N(C2CCC(=O)NC2=O)C4)C3)C1 (stereo not drawn) [Compound D356]
2,< 10,COc1cc(-c2cc(C)c(=O)n(C)n2)cc(OC)c1CN1CCC2(CC1)CN(c1ccc3c(c1)CN(C1CCC(=O)NC1=O)C3=O)C2 (stereo not drawn) [Compound D357]
3,< 10,COc1cc(-c2cc(C)c(=O)n(C)n2)cc(OC)c1CN1CCC2(CC1)CN(c1ccc3c(c1)C(=O)N(C1CCC(=O)NC1=O)C3)C2 (stereo not drawn) [Compound D358]
4,< 10,COc1cc(-c2cc(C)c(=O)n(C)c2C)c(OC)cc1CN1CC(CN2CCC3(CC2)CN(c2ccc4c(c2)C(=O)N(C2CCC(=O)NC2=O)C4=O)C3)C1 (stereo not drawn) [Compound D359]
5,< 10,COc1cc(-c2cn(C)c(=O)c3ccccc23)cc(OC)c1CN1CC(CN2CCC3(CC2)CN(c2ccc4c(c2)CN(C2CCC(=O)NC2=O)C4=O)C3)C1 (stereo not drawn) [Compound D360]
6,< 10,COc1cc(-c2cn(C)c(=O)c3cncn23)cc(OC)c1CN1CC(CN2CCC3(CC2)CN(c2ccc4c(c2)C(=O)N(C2CCC(=O)NC2=O)C4)C3)C1 (stereo not drawn) [Compound D361]
7,< 10,COc1cc(-c2cn(C)c(=O)c(C)c2C)cc(OC)c1CN1CCN(CCC2CCN(c3ccc4c(c3)CN(C3CCC(=O)NC3=O)C4=O)CC2)CC1 (stereo not drawn) [Compound D362]
8,< 10,COc1cc(-c2cn(C)c(=O)c3cncn23)cc(OC)c1CN1CC(CN2CCC3(CC2)CN(c2ccc4c(c2)CN(C2CCC(=O)NC2=O)C4=O)C3)C1 (stereo not drawn) [Compound D363]
9,100 to 1000,CNC(=O)NCc1cc(-c2cc(OC)c(CN3CC(CN4CCC5(CC4)CN(c4ccc6c(c4)C(=O)N(C4CCC(=O)NC4=O)C6)C5)C3)c(OC)c2)cn(C)c1=O (stereo not drawn) [Compound D364]
10,10 to 100,COc1cc(-c2cn(C)c(=O)n3ccnc23)cc(OC)c1CN1CC(CN2CCC3(CC2)CN(c2ccc4c(c2)C(=O)N(C2CCC(=O)NC2=O)C4)C3)C1 (stereo not drawn) [Compound D365]
11,< 10,COc1cc(-c2cn(C)c(=O)c3ccnnc23)cc(OC)c1CN1CCC(CN2CCC3(CC2)CC(Oc2ccc4c(c2)CN(C2CCC(=O)NC2=O)C4=O)C3)CC1 (stereo not drawn) [Compound D366]
12,< 10,COc1cc(-c2cn(C)c(=O)c3cnncc23)cc(OC)c1CN1CCC(CN2CCC3(CC2)CC(Oc2ccc4c(c2)CN(C2CCC(=O)NC2=O)C4=O)C3)CC1 (stereo not drawn) [Compound D367]
13,< 10,COc1cc(-c2cn(C)c(=O)c3cnncc23)cc(OC)c1CN1CCC(CN2CCC3(CC2)CC(Oc2ccc4c(c2)C(=O)N(C2CCC(=O)NC2=O)C4)C3)CC1 (stereo not drawn) [Compound D368]
14,< 10,COc1cc(-c2cn(C)c(=O)c3cnn(C)c23)cc(OC)c1CN1CC(CN2CCC3(CC2)CN(c2ccc4c(c2)CN(C2CCC(=O)NC2=O)C4=O)C3)C1 (stereo not drawn) [Compound D369]
15,< 10,COc1cc(-c2cn(C)c(=O)c3cn(C)nc23)cc(OC)c1CN1CC(CN2CCC3(CC2)CN(c2ccc4c(c2)CN(C2CCC(=O)NC2=O)C4=O)C3)C1 (stereo not drawn) [Compound D370]
16,< 10,COc1cc(-c2cn(C)c(=O)c3nc(O)ccc23)cc(OC)c1CN1CCC(CN2CCC3(CC2)CC(Oc2ccc4c(c2)CN(C2CCC(=O)NC2=O)C4=O)C3)CC1 (stereo not drawn) [Compound D371]

# Same assay, conditions: Table 5C; SYO-1 cells expressing 3×FLAG-NLuc-BRD9, 6 hours; read-out: SYO1 BRD9-NanoLuc degradation IC50
row,DC50 [nM],Compound
1,< 10,COc1cc(-c2cn(C)c(=O)c3cnccc23)cc(OC)c1CN1CC(Oc2ccc3c(c2)C(=O)N(C2CCC(=O)NC2=O)C3=O)C1 (stereo not drawn) [Compound D372]
2,< 10,COc1cc(-c2cn(C)c(=O)c3cnccc23)cc(OC)c1CN1CCC2(CC1)CN(c1ccc3c(c1)C(=O)N(C1CCC(=O)NC1=O)C3=O)C2 (stereo not drawn) [Compound D373]
3,< 10,COc1cc(-c2cn(C)c(=O)c3cnccc23)cc(OC)c1CN1CCC2(CC1)CN(c1ccc3c(c1)CN(C1CCC(=O)NC1=O)C3=O)C2 (stereo not drawn) [Compound D374]
4,< 10,COc1cc(-c2cn(C)c(=O)c3cnccc23)cc(OC)c1CN1CC(Oc2ccc3c(c2)CN(C2CCC(=O)NC2=O)C3=O)C1 (stereo not drawn) [Compound D375]
5,< 10,COc1cc(-c2cn(C)c(=O)c3cnccc23)cc(OC)c1CN1CC(Oc2ccc3c(c2)C(=O)N(C2CCC(=O)NC2=O)C3=O)C1C (stereo not drawn) [Compound D376]
6,< 10,COc1cc(-c2cn(C)c(=O)c3cnccc23)cc(OC)c1CN1CCC2(CC1)CN(c1ccc3c(c1)C(=O)N(C1CCC(=O)NC1=O)C3)C2 (stereo not drawn) [Compound D377]
7,< 10,COc1cc(-c2cn(C)c(=O)c3cnccc23)cc(OC)c1CN1CC(Oc2ccc3c(c2)C(=O)N(C2CCC(=O)NC2=O)C3)C1 (stereo not drawn) [Compound D378]
8,< 10,COc1cc(-c2cn(C)c(=O)c3cnccc23)cc(OC)c1CN1CCC(CN2CCC3(CN(c4ccc5c(c4)CN(C4CCC(=O)NC4=O)C5=O)C3)C(F)(F)C2)CC1 (stereo not drawn) [Compound D379]
9,10 to 100,COc1cc(C(=O)N2CCC3(CC2)CN(c2ccc4c(c2)C(=O)N(C2CCC(=O)NC2=O)C4)C3)cc(-c2cn(C)c(=O)c3cnccc23)c1 (stereo not drawn) [Compound D380]
10,< 10,COc1cc(-c2cn(C)c(=O)c3cnccc23)cc(OC)c1CN1CC(Oc2ccc3c(c2)C(=O)N(C2CCC(=O)N(COC(=O)[C@@H](N)C(C)C)C2=O)C3=O)C1 (stereo partly drawn) [Compound D381]
11,< 10,COc1cc(-c2cn(C)c(=O)c3cnccc23)cc(OC)c1CN1CCC2(CC1)CN(c1ccc3c(c1)C(=O)N(C1CC(=O)NC1=O)C3)C2 (stereo not drawn) [Compound D382]
12,> 1000,COc1cc(-c2cn(C)c(=O)c3cnccc23)cc(OC)c1CN1CCC2(CC1)CN(c1ccc3c(c1)C(=O)N(C1CC(=O)NC1=O)C3=O)C2 (stereo not drawn) [Compound D383]
13,< 10,COc1cc(-c2cn(C)c(=O)c3cnccc23)cc(OC)c1CN1CC(Oc2ccc3c(c2)CN(C2CCC(=O)N(COC(=O)[C@@H](N)C(C)C)C2=O)C3=O)C1 (stereo partly drawn) [Compound D384]
14,< 10,CCc1cc(-c2cn(C)c(=O)c3cnccc23)cc(OC)c1CN1CC(Oc2ccc3c(c2)C(=O)N(C2CCC(=O)NC2=O)C3=O)C1 (stereo not drawn) [Compound D385]
15,< 10,CCc1cc(-c2cn(C)c(=O)c3cnccc23)cc(OC)c1CN1CC(Oc2ccc3c(c2)C(=O)N(C2CCC(=O)NC2=O)C3=O)C1C (stereo not drawn) [Compound D386]
16,< 10,COc1cc(CN2CCC3(CC2)CN(c2ccc4c(c2)C(=O)N(C2CCC(=O)NC2=O)C4)C3)cc(-c2cn(C)c(=O)c3cnccc23)c1 (stereo not drawn) [Compound D387]
17,< 10,COc1cc(-c2cn(C)c(=O)c3cnccc23)cc(OC)c1CN1CCC2(CC1)CN(c1ccc3c(c1)C(=O)N(C1CCCC(=O)NC1=O)C3=O)C2 (stereo not drawn) [Compound D388]
18,> 1000,COc1cc(-c2cn(C)c(=O)c3cnccc23)cc(OC)c1CN1CCC2(CC1)CN(c1ccc3c(c1)C(=O)N(C1CCCNC1=O)C3)C2 (stereo not drawn) [Compound D389]
19,> 1000,COc1cc(-c2cn(C)c(=O)c3cnccc23)cc(OC)c1CN1CCC2(CC1)CN(c1ccc3c(c1)C(=O)N(C1CCC(=O)NC1)C3)C2 (stereo not drawn) [Compound D390]
20,100 to 1000,COc1cc(-c2cn(C)c(=O)c3cnccc23)cc(OC)c1CN1CCC2(CC1)CN(c1ccnc(C(=O)NC3CCC(=O)NC3=O)n1)C2 (stereo not drawn) [Compound D391]
21,10 to 100,COc1cc(-c2cn(C)c(=O)c3cnccc23)cc(OC)c1CN1CCC2(CC1)CN(c1cccc(C(=O)NC3CCC(=O)NC3=O)c1)C2 (stereo not drawn) [Compound D392]
22,10 to 100,COc1cc(-c2cn(C)c(=O)c3cnccc23)cc(OC)c1CN1CCC(c2cnn(C3CCC(=O)NC3=O)c2)CC1 (stereo not drawn) [Compound D393]
23,> 1000,COc1cc(-c2cn(C)c(=O)c3cnccc23)cc(OC)c1CN1CCC(c2cc(=O)n(C3CCC(=O)NC3=O)c(C)n2)CC1 (stereo not drawn) [Compound D394]
